Tests used:
5-lipoxygenase [1] = target: T1, 5-lipoxygenase (Rattus norvegicus, UniProt P12527); test: 5-lipoxygenase activity: LTB4 production by RBL-1 high speed supernatant; type: biochemical; details: for IC50: RBL1 high speed supernatant, read-out: 5LO IC50 (LTB4 Production)
T1 construct: The activities of these enzymes in extracts of RBL-1 cells were assayed; host or cells: RBL-1 cells, supernatant of broken cell extract
T1 sequence (P12527 1-673): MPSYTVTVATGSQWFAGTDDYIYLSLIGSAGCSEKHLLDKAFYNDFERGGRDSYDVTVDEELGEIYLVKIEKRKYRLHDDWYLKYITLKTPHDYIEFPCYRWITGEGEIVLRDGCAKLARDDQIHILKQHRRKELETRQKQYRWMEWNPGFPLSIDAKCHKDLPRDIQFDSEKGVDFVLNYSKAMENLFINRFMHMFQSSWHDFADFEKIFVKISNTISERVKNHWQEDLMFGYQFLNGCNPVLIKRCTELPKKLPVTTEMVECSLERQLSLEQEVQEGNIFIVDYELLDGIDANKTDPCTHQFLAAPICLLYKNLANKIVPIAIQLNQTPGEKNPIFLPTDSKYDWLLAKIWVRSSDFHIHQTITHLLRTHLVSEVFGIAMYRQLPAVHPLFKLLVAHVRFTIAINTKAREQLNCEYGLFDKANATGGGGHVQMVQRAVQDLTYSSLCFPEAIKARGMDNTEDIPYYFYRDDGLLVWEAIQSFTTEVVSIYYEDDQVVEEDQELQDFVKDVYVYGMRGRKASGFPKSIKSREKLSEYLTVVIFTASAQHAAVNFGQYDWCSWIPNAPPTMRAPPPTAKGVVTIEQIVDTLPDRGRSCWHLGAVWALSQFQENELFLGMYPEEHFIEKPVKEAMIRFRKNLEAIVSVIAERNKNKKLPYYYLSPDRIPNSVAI
Experimental: (§1) For in vitro experiments, compounds were dissolved at appropriate concentrations in ethanol (final concentration μ1.0%) and then diluted to final concentrations using the buffers indicated in the text.
(§2) The activities of these enzymes in extracts of RBL-1 cells were assayed using the method of Jakschik and Lee, Nature, 287, 51-52 (1980). RBL-1 cells were obtained from the American Type Culture Collection (#CRL 1378) and were grown at 37° C. (5% CO2 in air) in spinner culture in MEM supplemented with 10% heat inactivated fetal calf serum. Harvested cells were washed with 50 mM sodium phosphate buffer, pH 7.0, containing 1 mM EDTA and 0.1% galatin, resuspended in fresh buffer (5×10^7 cells/ml) and disrupted by nitrogen cavitation using the Parr bomb at 750 psi for 10 min. The broken cell extract was then centrifuged at 10,000×g for 60 minutes (min). Aliquots (0.25 mls) of the supernatant were preincubated with or without drugs for 10 min, after which 10 μl CaCl2 (2 mM) of 2.5 mM arachidonic acid-1-^14 C (final concentration was […]; specific activity 20,000 dpm/nmole). After incubation for 5 min at […], the reaction was terminated by addition of 2 volumes (0.5 ml) ice cold acetone and the sample was allowed to deproteinize on ice for 10 min prior to centrifugation at 1,000×gfor 10 min. The deproteinized supernatant was adjusted to pH 3.5 with 2N formic acid and extracted with 2 volumes of ice cold ethyl acetate. The extracted samples were dried under argon, redissolved in ethyl acetate and applied to Whatman LK5D thin layer chromatography (TLC) plates which were developed using the A-9 solvent system [organic phase of ethyl acetate:2,2,5-trimethylpentane:acetic acid:water (110:50:20:10)] described by Hamberg and Samuelsson, J. Bio. Chem., 241, 257-263 (1966). Arachidonic acid, 5-HETE, LTB4 and PGD2 were quantified with a Berthold LB 2832 autoscanner.
(§3) Drug-induced effects on enzyme activities are described as the concentration of drug causing a 50% inhibition of metabolite synthesis (IC50).

5-lipoxygenase [2] = target: T1, 5-lipoxygenase; test: 5-lipoxygenase activity: 5-HETE production by RBL-1 high speed supernatant; type: biochemical; details: RBL1 high speed supernatant; read-out: 5LO IC50 (5-HETE Production)
Experimental: as §1, §2, §3

[3] = system: Arachidonic acid-induced ear swelling; test: Arachidonic acid-induced mouse ear inflammation (ear swelling); type: in vivo, male Balb/c mice; details: for antiinflammatory activity (mouse ear edema): p.o.
Experimental: In the following Examples male Balb/c mice (20-28 g) were used. All mice were obtained from Charles River Breeding Laboratories, Kingston, N.Y. Within a single experiment, mice were sex and age matched.
The compounds of Formula (I), indomethacin, naproxen, and ibuprofen were each used as the free base. The compounds were homogenized in 0.5% tagacanth. Compounds were administered by gavage at the indicated dose in a final volume of 10 ml/kg. The compounds of Formula (I) were solubilized in dimethylacetamide and diluted with olive oil for subcantaneous administration.
Arachidonic acid in acetone (2 mg/20 μl) was applied to the inner surface of the left ear. The thickness of both ears was then measured with a dial micrometer one hour after treatment, and the […] were expressed as the change in thickness (10^-3 cm) between treated and untreated ears.
Test compounds were given orally in 0.5% tragacanth at the times indicated in the text prior to the topical application of arachidonic acid.
Parenteral administration of compound was accomplished by subcutaneous injection of solution as indicated.

[4] = system: Arachidonic acid-induced ear swelling; test: as above; type: in vivo, male Balb/c mice
[5] = system: area of infarction following coronary occlusion; details: dogs; cited from earlier work
[6] = system: LTB4 and 5-HETE production; details: in vitro; cited from earlier work
rheumatoid arthritis = details: preliminary observation; cited from earlier work
[7] = system: LTC4 production by human monocytes; test: LTC4 production by human monocytes; type: cell-based; details: Monocyte, A23187-stimulated, 3 hours, drug added 30 minutes prior
Experimental: as §1
One of the compounds of Formula (I), i.e., Compound Number 8 from Table 1, was evaluated for its ability to inhibit the production of LTC4 by human monocytes according to the following protocol.
Human monocytes were prepared from whole blood supplied by the American Red Cross. The blood was fractionated by a two-step procedure employing sedimentation on Ficoll followed by sedimentation on Percoll. The mononuclear cell fraction recovered was composed of 80-90% monocytes with the remainder of the cells being predominant lymphocytes. The monocytes were plated at 1×10^6 cells per well in a Costar 24 well tissue culture plat and allowed to adhere for one hour at 37° C. Non-adherent cells were removed by washing. The cells were stimulated with […] of A23187 calcium ionophore for 3 hours at 37° C. to induce LTC-4 produced when drugs were evaluated. They were added to the cells 30 minutes prior to the A23187. Supernatants were collected, clarified by centrifugation and store frozed at -20° C. until assay. The LTC-4 content was determined by using a New England Nuclear Leukotriene C-4 (^3 H) RIA Kit as per instructions.

psoriasis = details: in vivo; cited from earlier work
lipoxygenase = details: in vitro; cited from earlier work
[8] = 50 mg/kg s.c. or i.p., 2 mg arachidonic acid, 1 hour, * p .05, ** p .01, *** p .001

| IC50 (5-lipoxygenase [1]) | IC50 (5-lipoxygenase [2]) | Compound | % Inhibition of Ear Swelling [3, 8] | other results |
| --- | --- | --- | --- | --- |
| 8.4 µM | 10.4 µM | CCSc1nc(-c2ccc(OC)cc2)c(-c2ccc(OC)cc2)n1CC [Compound 3] | – | – |
| 1.5 µM | 3.1 µM | COc1ccc(-c2nc(NC#N)[nH]c2-c2ccc(OC)cc2)cc1 [Compound 4, 4,5-Bis(4-methoxyphenyl)-2-cyanamido-imidazole or 4,5-Bis(4-methoxyphenyl)-2-amino-1-cyano-imidazole] | 46% | – |
| – | – | COc1ccc2c(c1)c(CC(=O)O)c(C)n2C(=O)c1ccc(Cl)cc1 [indomethacin, reference compound] | – | antiinflammatory activity (mouse ear edema) ([3]; 10 mg/kg): did not exhibit detectable antiinflammatory activity; reduction of inflammation (mouse ear model) ([3]; arachidonic acid-induced): did not reduce inflammation or cell infiltration; inhibition of 5-lipoxygenase products (RBL-1 extract) (5-lipoxygenase [1]; concentrations up to 10^-4 M): inactive; reduction of cell infiltration (mouse ear model) [4]: did not reduce inflammation or cell infiltration |
| – | 95 µM | Fc1ccc(-c2[nH]c(SC(F)(F)C(F)F)nc2-c2ccncc2)cc1 [Compound 9] | – | – |
| 6.6 µM | 16 µM | O=S(=O)(c1nc(-c2ccc(F)cc2)c(-c2ccc(F)cc2)[nH]1)C(F)(F)C(F)F [Compound 2] | 41% | – |
| 1 µM | 8 µM | N#CNc1nc(-c2ccc(F)cc2)c(-c2ccc(F)cc2)[nH]1 [Compound 5, 4,5-Bis(4-fluorophenyl)-2-cyanamido-imidazole or 4,5-Bis(4-fluorophenyl)-2-amino-1-cyano-imidazole] | 59% | – |
| – | – | NC1=NN(c2cccc(C(F)(F)F)c2)CC1 [BW755-C] | – | area of infarction following coronary occlusion [5]: reduced |
| – | – | O=C(O)c1cc(/N=N/c2ccc(S(=O)(=O)Nc3ccccn3)cc2)ccc1O [sulfasalazine] | – | inhibition of LTB4 and 5-HETE production [6]: inhibit LTB4 and 5-HETE production in vitro; efficacy in rheumatoid arthritic patients (rheumatoid arthritis): efficacy, including remission |
| 1.5 µM | 17 µM | Fc1ccc(-c2[nH]c(S)nc2-c2ccncc2)cc1 [Compound 8] | – | IC50 [7]: 0.8 µM |
| 1.1 µM | 0.7 µM | COc1ccc(-c2nc(C(F)(F)F)[nH]c2-c2ccc(OC)cc2)cc1 [Compound 6] | – | % Inhibition of Ear Swelling ([3]; 50 mg/kg, oral dosing (p.o.), ** p .01): 28% |
| 13 µM | 13 µM | COc1ccc(-c2nc(SC)n(C)c2-c2ccc(OC)cc2)cc1 [Compound 1] | 51% | – |
| – | – | CC(C)Cc1ccc(C(C)C(=O)O)cc1 (centres unmarked) [ibuprofen, reference compound] | – | antiinflammatory activity (mouse ear edema) ([3]; 250 mg/kg): did not exhibit detectable antiinflammatory activity |
| – | – | CC(C(=O)O)c1ccc2oc(-c3ccc(Cl)cc3)nc2c1 (centres unmarked) [benoxaprofen] | – | effect on psoriasis (psoriasis): promising effect; lipoxygenase inhibitory activity (lipoxygenase): in vitro lipoxygenase inhibitory activity |
| 10 µM | 10 µM | Fc1ccc(-c2nc(-c3ccc(F)cc3)c(-c3ccc(F)cc3)[nH]2)cc1 [Compound 7] | 15% | – |
| – | – | COc1ccc2cc([C@H](C)C(=O)O)ccc2c1 [naproxen, reference compound] | – | antiinflammatory activity (mouse ear edema) ([3]; 100 mg/kg): did not exhibit detectable antiinflammatory activity |

From patent US4686231A, “Inhibition of 5-lipoxygenase products” (SmithKline Beckman Corporation, priority 1986, dated 1987)
